Laboratory results as given in PubChem BioAssay (NCI).
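96-well plates; 48 h exposure; 5 concentrations. Endpoints by linear interpolation between flanking doses. Not reached: highest tested concentration assigned. At the TGI there is no net growth.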

How the values were obtained:
Assay in all cases: NCI-60 cell line screen, 48 h
K-562 leukemia = system: K-562 leukemia
SR leukemia = system: SR leukemia
HCT-15 colon = system: HCT-15 colon
HL-60(TB) leukemia = system: HL-60(TB) leukemia
U251 CNS = system: U251 CNS
COLO 205 colon = system: COLO 205 colon
SNB-75 CNS = system: SNB-75 CNS
ACHN renal = system: ACHN renal
OVCAR-5 ovarian = system: OVCAR-5 ovarian
HT29 colon = system: HT29 colon
UACC-257 melanoma = system: UACC-257 melanoma
MCF7 breast = system: MCF7 breast
SF-539 CNS = system: SF-539 CNS
UACC-62 melanoma = system: UACC-62 melanoma
MALME-3M melanoma = system: MALME-3M melanoma
EKVX NSCLC = system: EKVX NSCLC
SF-268 CNS = system: SF-268 CNS
NCI-H460 lung = system: NCI-H460 lung
HS 578T breast = system: HS 578T breast
OVCAR-4 ovarian = system: OVCAR-4 ovarian
SK-MEL-5 melanoma = system: SK-MEL-5 melanoma
OVCAR-3 ovarian = system: OVCAR-3 ovarian
NCI-H226 lung = system: NCI-H226 lung
A498 renal = system: A498 renal
PC-3 prostate = system: PC-3 prostate
SK-MEL-28 melanoma = system: SK-MEL-28 melanoma
MDA-MB-435 = system: MDA-MB-435
A549 NSCLC = system: A549 NSCLC
DU-145 prostate = system: DU-145 prostate
T-47D breast = system: T-47D breast
NCI/ADR-RES ovarian = system: NCI/ADR-RES ovarian
NCI-H522 lung = system: NCI-H522 lung
IGROV1 ovarian = system: IGROV1 ovarian
SK-MEL-2 melanoma = system: SK-MEL-2 melanoma
HOP-92 NSCLC = system: HOP-92 NSCLC
UO-31 renal = system: UO-31 renal
HCT-116 colon = system: HCT-116 colon
NCI-H23 lung = system: NCI-H23 lung
HCC-2998 colon = system: HCC-2998 colon
KM12 colon = system: KM12 colon
SW-620 colon = system: SW-620 colon
SK-OV-3 ovarian = system: SK-OV-3 ovarian
SN12C renal = system: SN12C renal
TK-10 renal = system: TK-10 renal
RXF 393 renal = system: RXF 393 renal
SF-295 CNS = system: SF-295 CNS
MDA-MB-231 breast = system: MDA-MB-231 breast
SNB-19 CNS = system: SNB-19 CNS
MDA-N = system: MDA-N
OVCAR-8 ovarian = system: OVCAR-8 ovarian
CCRF-CEM leukemia = system: CCRF-CEM leukemia
786-0 renal = system: 786-0 renal
MOLT-4 leukemia = system: MOLT-4 leukemia
BT-549 breast = system: BT-549 breast
M14 melanoma = system: M14 melanoma
LOX IMVI melanoma = system: LOX IMVI melanoma
CAKI-1 renal = system: CAKI-1 renal
HOP-62 NSCLC = system: HOP-62 NSCLC
RPMI-8226 leukemia = system: RPMI-8226 leukemia

Measured: TGI

CC(=O)N1N=C(N)CC1=O
not listed: RPMI-8226 leukemia
> 100 µM: all other assays above

O=C(OCC1CCCN2CCCCC12)c1ccncc1 (stereo not drawn)
not listed: HL-60(TB) leukemia | NCI-H522 lung
> 100 µM: all other assays above

COc1ccc(C(C#N)NCCCCCCNC(C#N)c2ccc(OC)cc2)cc1 (stereo not drawn)
not listed: NCI-H460 lung
> 100 µM: all other assays above
